Several values for one entry are separate records, joined by “and”; a condition that tells them apart may be missing. Equal entries are not always repeated.
Tests used:
[1] = tested on: skin tissues of atopy-induced NC/Nga mice; assay: Histology: H & E biopsy score of skin; assay type: in vivo; details: for H & E biopsy score: group mean, acanthosis, hyperkeratosis, neutrophil infiltration, fibroblast hyperplasia, dermis each scored 1 to 3
Description: (§1) 4-7) Histology (H & E, Toluidine Blue Stain) • d. Skin tissues were fixed in 10% formalin for at least 24 hours, prepared into paraffin blocks, cut into pieces in the size of 4 μm, dyed with hematoxylin & eosin (Sigma, USA), and then dyed again with toluidine blue (Sigma, USA) for more accurate identification of inflammatory cells.
The evaluation standard for biopsy was calculated in an averaged score scale of 1 to 3 based on the status of acanthosis, hyperkeratosis, neutrophil infiltration, fibroblast hyperplasia, dermis, etc. […] Among them, a group treated with 1 mg/kg of chlorophyll a as a test drug was evaluated as being of significance (FIGS. 18-23).

mast cells = assay: Histology: number of mast cells in skin (toluidine blue, x200); assay type: in vivo, NC/Nga mice; details: for Average No. of Mast Cells × 200: individual mouse; for Average No. of Mast Cells × 200, Group Mean: mean of 5 mice
Description: as §1

spleen = assay: Measurement of spleen weight; assay type: in vivo, NC/Nga mice; details: for relative organ weight of spleen: group mean; for Absolute Comparison of Organs spleen wt. / Relative Comparison of Organs spleen: individual mouse; for Absolute Comparison of Organs spleen wt. mean S.D. / Relative Comparison of Organs spleen mean S.D.: mean of 5 mice
Description: The spleen of a sacrificed animal was ablated, removed of fat, and then measured of its weight. When the absolute organ weight of the spleen was compared with that of the positive control group (0.2576±0.043 g), the weight was lower in the order of test drug chlorophyll a 1 mg/kg group (0.1188±0.023 g), chlorophyll a 5 mg/kg group (0.1276±0.011 g), and 5 mg/kg drug control group (0.1376±0.025 g), and all of them were of significance at p<0.05, but were lower than that of the negative control group (0.1734±0.021 g) (FIG. 6).

[2] = tested on: dorsal skin of NC/Nga mice induced with atopic dermatitis using DNCB; assay: Dorsal skin inflammation of mice induced with atopic dermatitis (clinical images); assay type: in vivo; details: 15th week, versus positive control, in words
Text: 4-6) Dorsal Skin Inflammation of a Mouse Induced with Atopic Dermatitis • c. The body weight of a mouse was not increased due to DNCB solution used for inducing atopy, however, there was no decrease in body weight by the administration of chlorophyll a. In the positive control group coated with only distilled water after atopy induction using DNCB, there were observed a thick cornified layer and inflammation and damage on skin.

[3] = tested on: degranulation of mast cells; assay: Histology: mast cells per degranulation level; assay type: in vivo, NC/Nga mice; details: for No. of Mast Cells per value of degranulation level 1 / No. of Mast Cells per value of degranulation level 1, mean: intermediate level of degranulation; for No. of Mast Cells per value of degranulation level 1 / No. of Mast Cells per value of degranulation level 0 / No. of Mast Cells per value of degranulation level 2: individual mouse; for No. of Mast Cells per value of degranulation level 1, mean / No. of Mast Cells per value of degranulation level 0, mean / No. of Mast Cells per value of degranulation level 2, mean: mean of 5 mice; for No. of Mast Cells per value of degranulation level 0 / No. of Mast Cells per value of degranulation level 0, mean: normal degranulation; for No. of Mast Cells per value of degranulation level 2 / No. of Mast Cells per value of degranulation level 2, mean: serious level of degranulation
Description: as §1

IgE (Immunoglobulin E) = assay: IgE concentration in blood serum (ELISA); assay type: in vivo, NC/Nga mice; details: blood serum, 1 mg/kg oral daily, 1 mg/kg
Description: The blood collected in a mouse was left at room temperature for 30 minutes and then centrifuged at 3000 rpm for 20 minutes. The blood serum obtained therefrom was analyzed via ELISA kit (Shibayagi, Japan).

Structure (SMILES): C=Cc1c(C)c2cc3nc(c4c5[n-]c(cc6nc(cc1[n-]2)C(C)=C6CC)c(C)c5C(=O)[C@@H]4C(=O)OC)[C@@H](CCC(=O)OC/C=C(\C)CCC[C@H](C)CCC[C@H](C)CCCC(C)C)[C@@H]3C.[Mg+2] [chlorophyll a]
- H & E biopsy score ([1]; 1 mg/kg oral daily): 4.6±0.55
- tissue H&E reading: improvement in atopy symptom ([1]; 1 mg/kg oral daily, in words): the most improvement
- H & E biopsy score ([1]; 5 mg/kg oral daily): 5±1.58
- Average No. of Mast Cells × 200 (mast cells; 1 mg/kg oral daily): 9.3 and 7.6 and 5.4 and 8.9 and 10.4
- Average No. of Mast Cells × 200, Group Mean (mast cells; 1 mg/kg oral daily): 8.32±1.195 and 8.32 ± 1.915 and 8.32
- Average No. of Mast Cells × 200 (mast cells; 5 mg/kg oral daily): 7.3 and 10 and 12.7 and 11.8 and 11.1
- Average No. of Mast Cells × 200, Group Mean (mast cells; 5 mg/kg oral daily): 10.8±2.083 and 10.58 ± 2.083 and 10.58
- relative organ weight of spleen (spleen; 1 mg/kg oral daily): 0.418 ± 0.211 g
- Absolute Comparison of Organs spleen wt. (spleen; 1 mg/kg oral daily): 0.103 g and 0.114 g and 0.119 g and 0.1 g and 0.158 g
- Relative Comparison of Organs spleen (spleen; 1 mg/kg oral daily): 0.355 g/body wt. (100 g) and 0.394 g/body wt. (100 g) and 0.433 g/body wt. (100 g) and 0.370 g/body wt. (100 g) and 0.537 g/body wt. (100 g)
- Absolute Comparison of Organs spleen wt. mean S.D. (spleen; 1 mg/kg oral daily): 0.1188 ± 0.023 g
- Relative Comparison of Organs spleen mean S.D. (spleen; 1 mg/kg oral daily): 0.418 ± 0.073 g/body wt. (100 g)
- relative organ weight of spleen (spleen; 5 mg/kg oral daily): 0.446 ± 0.069 g
- Absolute Comparison of Organs spleen wt. (spleen; 5 mg/kg oral daily): 0.144 g and 0.12 g and 0.133 g and 0.122 g and 0.119 g
- Relative Comparison of Organs spleen (spleen; 5 mg/kg oral daily): 0.560 g/body wt. (100 g) and 0.383 g/body wt. (100 g) and 0.455 g/body wt. (100 g) and 0.414 g/body wt. (100 g) and 0.416 g/body wt. (100 g)
- Absolute Comparison of Organs spleen wt. mean S.D. (spleen; 5 mg/kg oral daily): 0.1276 ± 0.011 g
- Relative Comparison of Organs spleen mean S.D. (spleen; 5 mg/kg oral daily): 0.446 ± 0.069 g/body wt. (100 g)
- absolute organ weight and relative organ weight of spleen compared with the negative control group (spleen; in words, dose not split): only a little difference
- tissue damage of dorsal skin ([2]; 1 mg/kg oral daily): significant decreases
- tissue damage of dorsal skin ([2]; 5 mg/kg oral daily): significant decreases
- degranulation count of the mast cells ([3]; 1 mg/kg oral daily, in words): not significantly improved
- No. of Mast Cells per value of degranulation level 1 ([3]; 1 mg/kg oral daily, 1 mg/kg): 2.87 and 1.44 and 1.91 and 1.75 and 2.57
- No. of Mast Cells per value of degranulation level 1, mean ([3]; 1 mg/kg oral daily, 1 mg/kg): 2.11±0.59 and 2.11
- No. of Mast Cells per value of degranulation level 1 ([3]; 5 mg/kg oral daily, 5 mg/kg): 0.75 and 2.31 and 2.76 and 2.57 and 4.31
- No. of Mast Cells per value of degranulation level 1, mean ([3]; 5 mg/kg oral daily, 5 mg/kg): 2.54±1.27 and 2.54
- No. of Mast Cells per value of degranulation level 0 ([3]; 1 mg/kg oral daily, 1 mg/kg): 4.12 and 5.55 and 2.82 and 5.89 and 4.83
- No. of Mast Cells per value of degranulation level 0, mean ([3]; 1 mg/kg oral daily, 1 mg/kg): 4.64±1.22 and 4.64
- No. of Mast Cells per value of degranulation level 0 ([3]; 5 mg/kg oral daily, 5 mg/kg): 5.98 and 6.31 and 4.51 and 7.41 and 3.81
- No. of Mast Cells per value of degranulation level 0, mean ([3]; 5 mg/kg oral daily): 5.60
- No. of Mast Cells per value of degranulation level 0, mean ([3]; 5 mg/kg oral daily, 5 mg/kg): 5.60±1.44
- No. of Mast Cells per value of degranulation level 2 ([3]; 1 mg/kg oral daily, 1 mg/kg): 1.56 and 0.62 and 0.66 and 1.25 and 2.38
- No. of Mast Cells per value of degranulation level 2, mean ([3]; 1 mg/kg oral daily, 1 mg/kg): 1.30±0.73 and 1.30
- No. of Mast Cells per value of degranulation level 2 ([3]; 5 mg/kg oral daily, 5 mg/kg): 0.44 and 1.44 and 5.45 and 1.82 and 3.00
- No. of Mast Cells per value of degranulation level 2, mean ([3]; 5 mg/kg oral daily, 5 mg/kg): 2.43±1.92 and 2.43
- IgE Average Concentration (IgE (Immunoglobulin E); individual specimen): 104.198 ng/mL and 106.557 ng/mL and 166.675 ng/mL and 119.515 ng/mL and 149.499 ng/mL
- IgE Group Average (IgE (Immunoglobulin E); mean of 5 mice): 121.76 ± 15.58 ng/mL and 129.29 ± 27.60 ng/mL

Source: US20130274237A1, “COMPOSITION INCLUDING CHLOROPHYLL A AS AN ACTIVE INGREDIENT FOR PREVENTING AND TREATING TH2-MEDIATED IMMUNOLOGICAL DISEASES” (GWANGJU INSTITUTE OF SCIENCE AND TECHNOLOGY, priority 2009, published 2013)
